Experimental data published in ChEMBL document CHEMBL2074374, “The nuclear receptor PXR is a lithocholic acid sensor that protects against liver toxicity” (Proc Natl Acad Sci U S A, 2001).

Target: T1, Solute carrier organic anion transporter family member 1A4 (Mus musculus, UniProt Q9EP96)
T1 sequence (Q9EP96 whole entry): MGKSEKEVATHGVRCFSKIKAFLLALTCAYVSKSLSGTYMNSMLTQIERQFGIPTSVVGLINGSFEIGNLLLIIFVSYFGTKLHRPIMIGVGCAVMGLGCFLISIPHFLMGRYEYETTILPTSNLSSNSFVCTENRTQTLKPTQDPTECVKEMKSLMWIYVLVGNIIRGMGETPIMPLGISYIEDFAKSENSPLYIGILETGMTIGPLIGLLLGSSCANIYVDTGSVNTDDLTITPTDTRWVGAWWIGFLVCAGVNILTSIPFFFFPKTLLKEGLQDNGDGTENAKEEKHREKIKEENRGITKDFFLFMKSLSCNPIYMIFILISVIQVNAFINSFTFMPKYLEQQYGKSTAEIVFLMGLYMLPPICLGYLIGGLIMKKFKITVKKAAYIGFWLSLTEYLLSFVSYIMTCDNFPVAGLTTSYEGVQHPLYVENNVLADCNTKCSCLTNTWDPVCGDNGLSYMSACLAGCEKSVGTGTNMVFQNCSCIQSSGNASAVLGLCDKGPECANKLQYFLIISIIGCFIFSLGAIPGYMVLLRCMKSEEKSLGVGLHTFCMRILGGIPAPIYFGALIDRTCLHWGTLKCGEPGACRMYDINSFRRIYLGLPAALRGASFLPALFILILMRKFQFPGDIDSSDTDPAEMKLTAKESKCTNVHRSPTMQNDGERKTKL
Assay: TP_TRANSPORTER: Northern blot in vivo, liver of PXR+/+ mouse
Assay type: functional, organism-based

## C[C@H](CCC(=O)O)[C@H]1CC[C@H]2[C@@H]3CC[C@@H]4C[C@H](O)CC[C@]4(C)[C@H]3CC[C@]12C [LITHOCHOLIC ACID]
  Activity: inducer [+]

## CC(=O)[C@H]1[C@H](C#N)C[C@H]2[C@@H]3CC=C4C[C@@H](O)CC[C@]4(C)[C@H]3CC[C@@]21C [PREGNENOLONE CARBONITRILE]
  Activity: inducer [+]
